Literature values as cited in patent US20240131064A1, “TREATMENT OF CANCER PATIENTS WITH TUMOR INFILTRATING LYMPHOCYTE THERAPIES IN COMBINATION WITH BRAF INHIBITORS AND/OR MEK INHIBITORS” (Iovance Biotherapeutics, Inc., priority 2020, published 2024).
Like-named read-outs stand apart in the source and are kept apart here.

Assays:
[1] = percent of patients
[2] = tested on: BRAF V600E mutation-positive, unresectable or metastatic melanoma; settings: 187 patients treated, no prior BRAF or MEK inhibitor

nivolumab: PD-1 inhibitor, heavy chain SEQ ID NO:158, light chain SEQ ID NO:159
rate of durable responses relative to aldesleukin treatment (metastatic melanoma; metastatic melanoma): approximately double
ORR (metastatic melanoma; previously treated patients): 32%
Treatment-related adverse events leading to discontinuation of therapy [1]: 7.7%

CC(C)(C)c1nc(-c2cccc(NS(=O)(=O)c3c(F)cccc3F)c2F)c(-c2ccnc(N)n2)s1 [dabrafenib]
median duration of response (DOR) [2]: 5.6 months

des-alanyl-1, serine-125 human IL-2 [aldesleukin]
overall objective response rate (ORR) (metastatic melanoma; high-dose aldesleukin, metastatic melanoma): 16%
durable complete tumor regressions (CRs) (metastatic melanoma; high-dose aldesleukin, treated patients with metastatic melanoma): up to 6%

ipilimumab: CTLA-4 inhibitor, heavy chain SEQ ID NO:208, light chain SEQ ID NO:209
Treatment-related adverse events leading to discontinuation of therapy [1]: 14.8%

pembrolizumab: PD-1 inhibitor, heavy chain SEQ ID NO:168, light chain SEQ ID NO:169
ORR (metastatic melanoma; following prior therapy with ipilimumab): 21%
rate of durable responses relative to aldesleukin treatment (metastatic melanoma; metastatic melanoma): approximately double
